Tests used:
[1] = molecular target: Protein-tyrosine kinase 6 (Homo sapiens) (UniProt Q13882); assay: Inhibition of recombinant full length human BRK assessed as residual activity at 1 uM using poly(Glu, Tyr) 4:1 as substrate incubated for 40 mins in presence of [gamma-33ATP] by scintillation counting based radiometry assay relative to control
[2] = molecular target: Mitogen-activated protein kinase 13 (Homo sapiens) (UniProt O15264); assay: Inhibition of recombinant human full length SAPK4 assessed as residual activity at 1 uM using myelin basic protein as substrate measured after 40 mins in presence of [gamma33P]ATP by scintillation counting method relative to control
[3] = molecular target: ALK tyrosine kinase receptor (Homo sapiens) (UniProt Q9UM73); assay: Inhibition of human ALK (1058 to end residues) assessed as residual activity at 1 uM using KKKSPGEYVNIEFG as substrate incubated for 40 mins in presence of [gamma-33ATP] by scintillation counting based radiometry assay relative to control
Chain of ALK tyrosine kinase receptor (Homo sapiens) (Q9UM73 19-1620 limits assumed): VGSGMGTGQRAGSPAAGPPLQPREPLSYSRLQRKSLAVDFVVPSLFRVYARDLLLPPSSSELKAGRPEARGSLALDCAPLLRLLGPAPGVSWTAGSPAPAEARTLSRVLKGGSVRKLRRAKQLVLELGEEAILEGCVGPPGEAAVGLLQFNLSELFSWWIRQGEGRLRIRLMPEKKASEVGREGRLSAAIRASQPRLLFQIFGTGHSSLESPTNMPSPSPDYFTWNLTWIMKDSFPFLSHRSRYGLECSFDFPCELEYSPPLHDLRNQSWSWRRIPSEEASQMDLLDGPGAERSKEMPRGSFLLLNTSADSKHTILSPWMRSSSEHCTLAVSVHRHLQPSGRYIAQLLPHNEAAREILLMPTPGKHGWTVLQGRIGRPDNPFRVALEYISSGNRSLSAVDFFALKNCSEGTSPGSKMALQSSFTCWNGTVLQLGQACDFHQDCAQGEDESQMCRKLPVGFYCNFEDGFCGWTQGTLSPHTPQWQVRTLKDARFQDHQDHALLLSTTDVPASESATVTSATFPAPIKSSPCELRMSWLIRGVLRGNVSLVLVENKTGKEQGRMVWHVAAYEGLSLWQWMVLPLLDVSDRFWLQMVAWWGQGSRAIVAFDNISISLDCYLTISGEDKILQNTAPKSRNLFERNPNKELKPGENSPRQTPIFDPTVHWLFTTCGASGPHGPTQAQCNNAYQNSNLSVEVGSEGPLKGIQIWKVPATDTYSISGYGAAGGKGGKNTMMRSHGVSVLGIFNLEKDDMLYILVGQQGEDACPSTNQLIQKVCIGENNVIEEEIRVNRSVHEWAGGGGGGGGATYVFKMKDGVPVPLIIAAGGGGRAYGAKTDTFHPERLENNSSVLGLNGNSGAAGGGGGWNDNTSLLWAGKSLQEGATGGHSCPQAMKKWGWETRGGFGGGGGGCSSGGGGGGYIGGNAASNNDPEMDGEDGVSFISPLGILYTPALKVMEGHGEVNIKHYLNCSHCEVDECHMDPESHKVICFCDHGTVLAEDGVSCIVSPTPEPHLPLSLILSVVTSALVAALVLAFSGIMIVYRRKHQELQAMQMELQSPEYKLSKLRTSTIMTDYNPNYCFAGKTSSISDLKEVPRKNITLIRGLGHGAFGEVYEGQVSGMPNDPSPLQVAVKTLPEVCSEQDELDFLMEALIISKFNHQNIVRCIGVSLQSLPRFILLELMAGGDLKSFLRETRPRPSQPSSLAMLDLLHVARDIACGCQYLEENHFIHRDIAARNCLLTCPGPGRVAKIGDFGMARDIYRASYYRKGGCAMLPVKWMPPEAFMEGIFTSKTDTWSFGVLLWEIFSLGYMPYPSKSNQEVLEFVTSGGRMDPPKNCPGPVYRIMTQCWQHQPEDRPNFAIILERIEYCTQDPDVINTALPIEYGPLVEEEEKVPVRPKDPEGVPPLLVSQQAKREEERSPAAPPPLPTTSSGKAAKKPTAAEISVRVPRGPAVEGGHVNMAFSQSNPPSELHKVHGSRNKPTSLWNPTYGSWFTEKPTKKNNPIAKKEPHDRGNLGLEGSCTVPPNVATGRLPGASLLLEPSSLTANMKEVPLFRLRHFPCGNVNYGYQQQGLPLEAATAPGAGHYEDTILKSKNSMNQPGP

[4] = molecular target: Vascular endothelial growth factor receptor 2 (Homo sapiens) (UniProt P35968); assay: Inhibition of human KDR (790 to end residues) assessed as residual activity at 1 uM using myelin basic protein as substrate after 40 mins by [gamma-33ATP] radiometric assay relative to control
[5] = molecular target: Tyrosine-protein kinase HCK (Homo sapiens) (UniProt P08631); assay: Inhibition of human HCK activated (230 to 497 residues) assessed as residual activity at 1 uM using GGMEDIYFEFMGGKKK as substrate after 40 mins by [gamma-33ATP] radiometric assay relative to control
[6] = test system: PI3-kinase p110-alpha/p85-alpha (Homo sapiens), P27986+P42336 [H1047R]; assay: (§1) Inhibition of recombinant full-length human PI3K p110alpha H1047R mutant/p85alpha assessed as residual activity at 1 uM assessed as residual activity at 1 uM using phosphatidylinositol-4, 5-bisphosphate as substrate incubated for 40 mins in presence of [gamma33P]ATP by scintillation counting based radiometry assay relative to control; format: protein-complex assay
Homo sapiens = species: Homo sapiens; assay: as §1, with “recombinant” for “recombinant full-length”, “human full length” for “human”, “p110alpha/p65alpha” for “p110alpha H1047R mutant/p85alpha”
[7] = molecular target: Serine/threonine-protein kinase 3 (Homo sapiens) (UniProt Q13188); assay: Inhibition of recombinant full-length human MST2 (2 to end residues) assessed as residual activity at 1 uM using myelin basic protein as substrate measured after 40 mins in presence of [gamma33P]ATP by scintillation counting method relative to control
[8] = molecular target: Mast/stem cell growth factor receptor Kit (Homo sapiens) (UniProt P10721); assay: Inhibition of recombinant human c-Kit (544 to end residues) assessed as residual activity at 1 uM using poly(Glu, Tyr) 4:1 as substrate measured after 40 mins in presence of [gamma33P]ATP by scintillation counting method
[9] = molecular target: Ephrin type-A receptor 7 (Homo sapiens) (UniProt Q15375); assay: Inhibition of recombinant human EphA7 (613 to 909 residues) assessed as residual activity at 1 uM using KTFCGTPEYLAPEVRREPRILSEEEQEMFRDFDYIADWC as substrate at 40 mins in presence of [gamma-33ATP] by scintillation counting based radiometry assay relative to control
[10] = molecular target: Serine/threonine-protein kinase PLK2 (Homo sapiens) (UniProt Q9NYY3); assay: Inhibition of human Snk (65 to 409 residues) assessed as residual activity at 1 uM using casein as substrate measured after 40 mins in presence of [gamma33P]ATP by scintillation counting method relative to control
[11] = molecular target: Serine/threonine-protein kinase TAO2 (Homo sapiens) (UniProt Q9UL54); assay: Inhibition of human TAO2 (1 to 320 residues) assessed as residual activity at 1 uM using myelin basic protein as substrate measured after 40 mins in presence of [gamma33P]ATP by scintillation counting method relative to control
Chain of Serine/threonine-protein kinase TAO2 (Homo sapiens) (Q9UL54 whole entry, the tested form may be a part): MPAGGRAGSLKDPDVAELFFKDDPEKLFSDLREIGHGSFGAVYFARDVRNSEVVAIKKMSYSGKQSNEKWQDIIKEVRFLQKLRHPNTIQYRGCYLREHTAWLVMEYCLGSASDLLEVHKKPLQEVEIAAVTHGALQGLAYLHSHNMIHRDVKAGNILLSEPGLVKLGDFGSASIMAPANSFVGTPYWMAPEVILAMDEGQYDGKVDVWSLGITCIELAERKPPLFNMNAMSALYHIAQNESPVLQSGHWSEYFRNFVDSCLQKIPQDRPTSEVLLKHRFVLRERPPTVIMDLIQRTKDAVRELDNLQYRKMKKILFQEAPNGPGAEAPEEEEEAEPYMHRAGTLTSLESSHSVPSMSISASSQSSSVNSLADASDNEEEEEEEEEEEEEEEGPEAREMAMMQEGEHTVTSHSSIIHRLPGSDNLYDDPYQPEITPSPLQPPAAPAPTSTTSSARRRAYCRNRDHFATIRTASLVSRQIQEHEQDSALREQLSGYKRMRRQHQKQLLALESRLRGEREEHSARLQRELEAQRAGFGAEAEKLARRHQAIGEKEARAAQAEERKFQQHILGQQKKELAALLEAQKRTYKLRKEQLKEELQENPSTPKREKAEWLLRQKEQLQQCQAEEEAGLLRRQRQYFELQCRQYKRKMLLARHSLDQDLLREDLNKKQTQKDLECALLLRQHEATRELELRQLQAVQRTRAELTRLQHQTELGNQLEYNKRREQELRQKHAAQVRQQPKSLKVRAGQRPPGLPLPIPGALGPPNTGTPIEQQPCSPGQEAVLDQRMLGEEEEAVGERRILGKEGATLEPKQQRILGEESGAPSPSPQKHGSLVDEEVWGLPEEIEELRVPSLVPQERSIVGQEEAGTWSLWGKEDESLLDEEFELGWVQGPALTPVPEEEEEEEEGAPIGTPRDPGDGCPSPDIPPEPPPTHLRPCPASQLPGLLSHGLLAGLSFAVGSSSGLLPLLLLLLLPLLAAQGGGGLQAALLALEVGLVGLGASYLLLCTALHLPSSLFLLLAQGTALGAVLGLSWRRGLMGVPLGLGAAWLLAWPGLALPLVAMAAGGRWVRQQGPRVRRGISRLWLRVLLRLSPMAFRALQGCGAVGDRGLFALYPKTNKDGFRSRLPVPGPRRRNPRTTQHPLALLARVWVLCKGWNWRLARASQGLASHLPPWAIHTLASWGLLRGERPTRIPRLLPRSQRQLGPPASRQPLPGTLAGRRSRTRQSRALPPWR

[12] = molecular target: Mitogen-activated protein kinase 12 (Homo sapiens) (UniProt P53778); assay: Inhibition of recombinant human full length SAPK3 assessed as residual activity at 1 uM using myelin basic protein as substrate measured after 40 mins in presence of [gamma33P]ATP by scintillation counting method relative to control
[13] = molecular target: Serine/threonine-protein kinase Nek11 (Homo sapiens) (UniProt Q8NG66); assay: Inhibition of recombinant full length human NEK11 assessed as residual activity at 1 uM myelin basic protein as substrate measured after 40 mins in presence of [gamma33P]ATP by scintillation counting method relative to control
Chain of Serine/threonine-protein kinase Nek11 (Homo sapiens) (Q8NG66 whole entry, the tested form may be a part): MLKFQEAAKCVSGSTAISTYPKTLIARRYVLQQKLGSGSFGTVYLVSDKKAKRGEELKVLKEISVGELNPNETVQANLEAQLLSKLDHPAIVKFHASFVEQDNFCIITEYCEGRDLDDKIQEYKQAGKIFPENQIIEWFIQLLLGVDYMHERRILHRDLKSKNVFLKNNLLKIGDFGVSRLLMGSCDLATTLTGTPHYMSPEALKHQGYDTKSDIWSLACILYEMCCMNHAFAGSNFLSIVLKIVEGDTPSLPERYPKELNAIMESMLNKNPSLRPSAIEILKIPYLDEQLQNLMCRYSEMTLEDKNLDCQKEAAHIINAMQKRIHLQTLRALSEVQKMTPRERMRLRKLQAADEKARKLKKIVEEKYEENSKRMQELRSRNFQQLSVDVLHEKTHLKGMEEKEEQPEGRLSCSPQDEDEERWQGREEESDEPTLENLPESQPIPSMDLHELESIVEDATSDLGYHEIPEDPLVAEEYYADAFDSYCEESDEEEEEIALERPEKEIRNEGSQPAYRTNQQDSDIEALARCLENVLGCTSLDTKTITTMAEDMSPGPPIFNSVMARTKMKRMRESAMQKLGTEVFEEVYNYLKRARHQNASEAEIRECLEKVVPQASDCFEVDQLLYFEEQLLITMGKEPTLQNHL

[14] = test system: Serine/threonine-protein kinase TAO3 (Homo sapiens), Q9H2K8 [UNDEFINED MUTATION]; assay: Inhibition of human TAO3 (1 to 411 residues) assessed as residual activity at 1 uM using myelin basic protein as substrate measured after 40 mins in presence of [gamma33P]ATP by scintillation counting method relative to control
[15] = molecular target: CDK6/cyclin D3 (Homo sapiens) (UniProt P30281+Q00534); assay: Inhibition of recombinant full length human CDK6/cyclinD3 assessed as residual activity at 1 uM using histone H1 as substrate incubated for 40 mins in presence of [gamma-33ATP] by scintillation counting based radiometry assay relative to control; format: protein-complex assay
[16] = molecular target: Fibroblast growth factor receptor 2 (Homo sapiens) (UniProt P21802); assay: Inhibition of recombinant human FGFR2 (456 to 770 residues) assessed as residual activity at 1 uM using poly(Glu, Tyr) 4:1 as substrate at 40 mins in presence of [gamma-33ATP] by scintillation counting based radiometry assay relative to control
Chain of Fibroblast growth factor receptor 2 (Homo sapiens) (P21802 22-821 limits assumed): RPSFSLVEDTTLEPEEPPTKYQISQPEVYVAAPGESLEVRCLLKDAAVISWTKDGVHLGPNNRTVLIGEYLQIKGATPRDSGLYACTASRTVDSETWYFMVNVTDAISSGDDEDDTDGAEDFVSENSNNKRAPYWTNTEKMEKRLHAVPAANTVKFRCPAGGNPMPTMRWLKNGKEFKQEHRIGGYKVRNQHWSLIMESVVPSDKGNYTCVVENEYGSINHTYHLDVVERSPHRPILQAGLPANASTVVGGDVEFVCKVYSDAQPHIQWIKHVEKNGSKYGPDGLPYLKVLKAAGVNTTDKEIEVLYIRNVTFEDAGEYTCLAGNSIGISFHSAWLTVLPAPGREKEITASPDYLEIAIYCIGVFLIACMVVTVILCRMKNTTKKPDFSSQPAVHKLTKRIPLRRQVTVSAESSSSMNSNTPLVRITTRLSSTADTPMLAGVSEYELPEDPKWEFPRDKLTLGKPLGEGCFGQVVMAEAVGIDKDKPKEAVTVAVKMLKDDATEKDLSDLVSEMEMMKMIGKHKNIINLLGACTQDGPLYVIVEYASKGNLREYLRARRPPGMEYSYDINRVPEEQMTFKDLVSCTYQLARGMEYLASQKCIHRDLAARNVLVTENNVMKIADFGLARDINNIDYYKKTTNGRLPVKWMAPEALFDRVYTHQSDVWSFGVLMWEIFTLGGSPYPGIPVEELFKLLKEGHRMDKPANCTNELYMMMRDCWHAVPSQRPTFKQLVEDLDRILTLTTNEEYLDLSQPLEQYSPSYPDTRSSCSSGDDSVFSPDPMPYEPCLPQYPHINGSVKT

[17] = molecular target: Tyrosine-protein kinase Srms (Homo sapiens) (UniProt Q9H3Y6); assay: Inhibition of human SRMS assessed as residual activity at 1 uM by radiometric method relative to control
[18] = test system: SNF-related serine/threonine-protein kinase (Homo sapiens), Q9NRH2 [UNDEFINED MUTATION]; assay: Inhibition of human SNRK E97G/P116A mutant (65 to 409 residues) assessed as residual activity at 1 uM using KKLRRTLSFAEPG as substrate measured after 40 mins in presence of [gamma33P]ATP by scintillation counting method relative to control
[19] = molecular target: Serine/threonine-protein kinase TAO1 (Homo sapiens) (UniProt Q7L7X3); assay: Inhibition of human TAO1 (1 to 327 residues) assessed as residual activity at 1 uM using myelin basic protein as substrate measured after 40 mins in presence of [gamma33P]ATP by scintillation counting method relative to control
[20] = molecular target: Serine/threonine-protein kinase Sgk3 (Homo sapiens) (UniProt Q96BR1); assay: Inhibition of recombinant human SGK3 (119 to end residues) assessed as residual activity at 1 uM using GRPRTSSFAEGKK as substrate measured after 40 mins in presence of [gamma33P]ATP by scintillation counting method relative to control
Chain of Serine/threonine-protein kinase Sgk3 (Homo sapiens) (Q96BR1 whole entry): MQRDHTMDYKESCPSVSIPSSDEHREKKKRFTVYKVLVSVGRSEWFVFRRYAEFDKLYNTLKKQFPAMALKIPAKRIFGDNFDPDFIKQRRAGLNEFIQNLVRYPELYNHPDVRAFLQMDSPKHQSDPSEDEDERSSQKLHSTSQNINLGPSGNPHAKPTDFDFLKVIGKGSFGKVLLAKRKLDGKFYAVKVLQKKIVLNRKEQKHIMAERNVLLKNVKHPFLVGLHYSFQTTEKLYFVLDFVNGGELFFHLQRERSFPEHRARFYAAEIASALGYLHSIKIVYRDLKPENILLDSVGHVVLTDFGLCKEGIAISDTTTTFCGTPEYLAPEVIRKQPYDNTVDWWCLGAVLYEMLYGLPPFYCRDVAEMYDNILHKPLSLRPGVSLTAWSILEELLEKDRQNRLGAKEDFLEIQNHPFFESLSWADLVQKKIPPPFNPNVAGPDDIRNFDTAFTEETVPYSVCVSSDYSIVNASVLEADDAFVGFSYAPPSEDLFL

[21] = molecular target: Serine/threonine-protein kinase 4 (Homo sapiens) (UniProt Q13043); assay: Inhibition of recombinant full-length human MST1 assessed as residual activity at 1 uM using KKSRGDYMTMQIG as substrate measured after 40 mins in presence of [gamma33P]ATP by scintillation counting method relative to control

In the case of N=C1NC(=O)/C(=C\c2ccc(-c3cccc([N+](=O)[O-])c3)o2)S1, the Activity [1] is reported as 103%, the Activity [2] is reported as 97% and the Activity [3] is reported as 98%. For the same compound, the Activity [4] was 94%, the Activity [5] was 80% and the Activity [6] was 100%. It also gave an Activity (Homo sapiens) of 100%, an Activity [7] of 98% and an Activity [8] of 112%. The Activity [9] was 101%, the Activity [10] was 92% and the Activity [11] was 79%. It also gave an Activity [12] of 97%, an Activity [13] of 55% and an Activity [14] of 81%. The Activity [15] was 92%, the Activity [16] was 102% and the Activity [17] was 95%. The Activity [18] was 110%, the Activity [19] was 52% and the Activity [20] was 109%. For the same compound, the Activity [21] was 98%.
C=CCOC(=O)c1cc(-c2ccc(/C=C3/NC(=S)NC3=O)o2)ccc1Cl gave an Activity [1] of 106%, an Activity [2] of 89% and an Activity [3] of 90%. The Activity [4] was 98%, the Activity [5] was 103% and the Activity [6] was 94%. It also gave an Activity (Homo sapiens) of 85%, an Activity [7] of 92% and an Activity [8] of 101%. It also gave an Activity [9] of 99%, an Activity [10] of 91% and an Activity [11] of 100%. For the same compound, the Activity [12] was 94%, the Activity [13] was 62% and the Activity [14] was 87%. It also gave an Activity [15] of 84%, an Activity [16] of 98% and an Activity [17] of 114%. The Activity [18] was 83%, the Activity [19] was 82% and the Activity [20] was 96%. It also gave an Activity [21] of 103%.
